Reference: patent publication US6559101B2, “N- (5, 7-dimethoxy [1, 2, 4] triazolo [1, 5-a] pyrimidin-2-yl) arylsulfonamide compounds and their use as herbicides” (Dow AgroSciences LLC, priority 2000, dated 2003)

Experiments:
Type in all cases: in vivo
[1] = test system: Rox orange sorghum (Sorghum bicolor); experiment: Preemergence herbicidal activity; conditions: 35 g/Ha; scored after 3 weeks; 0 no injury, 100 complete kill or no germination
How it was run: (§1)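 Visual injury score (0% = none, 100% = complete kill or no germination) vs untreated controls at 3 weeks. Pre-emergence soil spray on seeded pots, max 4.48 kg/ha. Greenhouse: ~15 h photoperiod, day 23-29 °C, night 22-28 °C, top-irrigated.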

[2] = test system: wild poinsettia (Euphorbia heterophylla); experiment: Preemergence herbicidal activity; conditions: 35 g/Ha; scored after 3 weeks; 0 no injury, 100 complete kill or no germination
How it was run: as §1

[3] = test system: giant foxtail (Setaria faberi); experiment: Preemergence herbicidal activity; conditions: 35 g/Ha; scored after 3 weeks; 0 no injury, 100 complete kill or no germination
How it was run: as §1

[4] = test system: pigweed (Amaranthus retroflexus); experiment: Preemergence herbicidal activity; conditions: 35 g/Ha; scored after 3 weeks; 0 no injury, 100 complete kill or no germination
How it was run: as §1

[5] = test system: barnyardgrass (Echinochloa crus-galli); experiment: Preemergence herbicidal activity; conditions: 35 g/Ha; scored after 3 weeks; 0 no injury, 100 complete kill or no germination
How it was run: as §1

[6] = test system: crabgrass (Digitaria sanguinalis); experiment: Preemergence herbicidal activity; conditions: 35 g/Ha; scored after 3 weeks; 0 no injury, 100 complete kill or no germination
How it was run: as §1

wild oats (Avena fatua) [7] = experiment: Preemergence herbicidal activity; conditions: 35 g/Ha; scored after 3 weeks; 0 no injury, 100 complete kill or no germination
How it was run: as §1

[8] = test system: velvetleaf (Abutilion theophrasti); experiment: Preemergence herbicidal activity; conditions: 35 g/Ha; scored after 3 weeks; 0 no injury, 100 complete kill or no germination
How it was run: as §1

[9] = test system: blackgrass (Alopecurus myosuroides); experiment: Preemergence herbicidal activity; conditions: 35 g/Ha; scored after 3 weeks; 0 no injury, 100 complete kill or no germination
How it was run: as §1

[10] = test system: lambsquarters (Chenopodium album); experiment: Preemergence herbicidal activity; conditions: 35 g/Ha; scored after 3 weeks; 0 no injury, 100 complete kill or no germination
How it was run: as §1

[11] = test system: morningglory (Ipomoea hederacea); experiment: Preemergence herbicidal activity; conditions: 35 g/Ha; scored after 3 weeks; 0 no injury, 100 complete kill or no germination
How it was run: as §1

[12] = test system: cocklebur (Xanthium strumarium); experiment: Preemergence herbicidal activity; conditions: 35 g/Ha; scored after 3 weeks; 0 no injury, 100 complete kill or no germination
How it was run: as §1

[13] = test system: wild buckwheat (Polygonum convolvulus); experiment: Postemergence herbicidal activity; conditions: scored after 2 weeks, 0 no injury, 100 complete kill
How it was run: (§2)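 Visual injury rating, 0 (none) to 100% (complete kill), 2 weeks after postemergence spray versus untreated controls. Plants treated at 1st–2nd true leaf; spray rate 1 ppm ≈ 1 g/ha. Sub-irrigated after treatment to prevent wash-off.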

viola (Viola tricolor) = experiment: Postemergence herbicidal activity; conditions: scored after 2 weeks, 0 no injury, 100 complete kill
How it was run: as §2

[14] = test system: Rox orange sorghum (Sorghum bicolor); experiment: Postemergence herbicidal activity; conditions: scored after 2 weeks, 0 no injury, 100 complete kill
How it was run: as §2

[15] = test system: giant foxtail (Setaria faberi); experiment: Postemergence herbicidal activity; conditions: scored after 2 weeks, 0 no injury, 100 complete kill
How it was run: as §2

[16] = test system: pigweed (Amaranthus retroflexus); experiment: Postemergence herbicidal activity; conditions: scored after 2 weeks, 0 no injury, 100 complete kill
How it was run: as §2

wild oats (Avena fatua) [17] = experiment: Postemergence herbicidal activity; conditions: scored after 2 weeks, 0 no injury, 100 complete kill
How it was run: as §2

[18] = test system: velvetleaf (Abutilion theophrasti); experiment: Postemergence herbicidal activity; conditions: scored after 2 weeks, 0 no injury, 100 complete kill
How it was run: as §2

[19] = test system: blackgrass (Alopecurus myosuroides); experiment: Postemergence herbicidal activity; conditions: scored after 2 weeks, 0 no injury, 100 complete kill
How it was run: as §2

[20] = test system: lambsquarters (Chenopodium album); experiment: Postemergence herbicidal activity; conditions: scored after 2 weeks, 0 no injury, 100 complete kill
How it was run: as §2

[21] = test system: morningglory (Ipomoea hederacea); experiment: Postemergence herbicidal activity; conditions: scored after 2 weeks, 0 no injury, 100 complete kill
How it was run: as §2

[22] = test system: cocklebur (Xanthium strumarium); experiment: Postemergence herbicidal activity; conditions: scored after 2 weeks, 0 no injury, 100 complete kill
How it was run: as §2

[23] = test system: chickweed (Stellaria media); experiment: Postemergence herbicidal activity; conditions: scored after 2 weeks, 0 no injury, 100 complete kill
How it was run: as §2

SMILES | Preemergence herbicidal activity SORBI [1] | Preemergence herbicidal activity EPHHL [2] | Preemergence herbicidal activity SETFA [3] | Preemergence herbicidal activity AMARE [4] | Preemergence herbicidal activity ECHCG [5] | Preemergence herbicidal activity DIGSA [6] | Preemergence herbicidal activity AVEFA (wild oats (Avena fatua) [7]) | Preemergence herbicidal activity ABUTH [8] | Preemergence herbicidal activity ALOMY [9] | Preemergence herbicidal activity CHEAL [10] | Preemergence herbicidal activity IPOHE [11] | Preemergence herbicidal activity XANST [12] | other results
COc1cc(OC)n2nc(NS(=O)(=O)c3c(C(F)(F)C(F)(F)F)ccnc3OC)nc2n1 [Compound 18] | 100% | 70% | 100% | 100% | 90% | 100% | 70% | 95% | 100% | 100% | 90% | 70% | Postemergence herbicidal activity POLCO ([13]; 31.3 ppm): 60%; Postemergence herbicidal activity VIOTR (viola (Viola tricolor); 31.3 ppm): 80%; Postemergence herbicidal activity SORBI ([14]; 31.3 ppm): 90%; Postemergence herbicidal activity SETFA ([15]; 31.3 ppm): 85%; Postemergence herbicidal activity AMARE ([16]; 31.3 ppm): 100%; Postemergence herbicidal activity AVEFA (wild oats (Avena fatua) [17]; 31.3 ppm): 50%; Postemergence herbicidal activity ABUTH ([18]; 31.3 ppm): 90%; Postemergence herbicidal activity ALOMY ([19]; 31.3 ppm): 65%; Postemergence herbicidal activity CHEAL ([20]; 31.3 ppm): 95%; Postemergence herbicidal activity IPOHE ([21]; 31.3 ppm): 70%; Postemergence herbicidal activity XANST ([22]; 31.3 ppm): 85%; Postemergence herbicidal activity STEME ([23]; 31.3 ppm): 100%
CCOc1nccc(C(F)(F)F)c1S(=O)(=O)Nc1nc2nc(OC)cc(OC)n2n1 [Compound 19] | 60% | 50% | 30% | 100% | 70% | 80% | 60% | 80% | 100% | 100% | 50% | 85% | Postemergence herbicidal activity POLCO ([13]; 15.6 ppm): 90%; Postemergence herbicidal activity VIOTR (viola (Viola tricolor); 15.6 ppm): 90%; Postemergence herbicidal activity SORBI ([14]; 15.6 ppm): 50%; Postemergence herbicidal activity SETFA ([15]; 15.6 ppm): 60%; Postemergence herbicidal activity AMARE ([16]; 15.6 ppm): 90%; Postemergence herbicidal activity AVEFA (wild oats (Avena fatua) [17]; 15.6 ppm): 50%; Postemergence herbicidal activity ABUTH ([18]; 15.6 ppm): 75%; Postemergence herbicidal activity ALOMY ([19]; 15.6 ppm): 80%; Postemergence herbicidal activity CHEAL ([20]; 15.6 ppm): 95%; Postemergence herbicidal activity IPOHE ([21]; 15.6 ppm): 75%; Postemergence herbicidal activity XANST ([22]; 15.6 ppm): 90%; Postemergence herbicidal activity STEME ([23]; 15.6 ppm): 95%
